According to patent US20010053796A1, “Delta-aminolevulinic acid for prevention and treatment of infection microorganisms and parasite” (priority 2000, published 2001):

Key:
[1] = system: Vibrio anguillarum; test: Prevention effect for artificial infection (abdominal injection of bacteria); type: in vivo, Sebastes schlegeli; conditions: for Mortality during Cultivation: dead of 20 fish
Protocol: (§1) The water temperature was maintained at 20° C. (±2° C. ) throughout the experiment.
(§2) As the same method of above Experiment 1, fishes of both control group and experiment group were prepared and artificially infected by direct abdominal injection of Edwardsiella tarda 10^5 CFU per 1 fish. Each experimental fish was moved to fish tanks for monitoring and monitored for mortality according to infection for 2 weeks and viability after 2 weeks.
(§3) Bastardhalibut and Sebastes schlegeli were infected by Vibrio anguillarum through abdominal injection with the same method of fish breeding; δ-aminolevulinic acid treatment and artificial infection carried out in Experiment 1 and 2.

[2] = system: Edwardsiella tarda; test: Treatment of Edwardsiella bacteria-infected fish in a fish farm; type: in vivo, flatfish
Description: Infected fish cultivated in the terrestrial fish tank were found in a fish farm, where flatfish (mean weight 11 g) were dying by spontaneous attack. The main source of infection was Edwardsiella tardaa. About 30˜40% of cumulative mortality per cultivating tank has shown after 5 days since the mortality started. […] On the first day, 0.1 ppm δ-aminolevulinic acid was digestion-treated in two tanks for 2 hrs and on the second and third day, 0.01 ppm δ-aminolevulinic acid was digested for 2 hrs. They were then observed, during the water was exchanged. δ-aminolevulinic acid digestion-treated tanks (about 3,000 fish) has maintained 40% cumulative mortality for 1 week after treatment, while δ-aminolevulinic acid non-treated tanks has shown 60% cumulative mortality and progressive disease was observed, more reporting 20% cumulative mortality thereafter.

[3] = system: Streptococcus sp.; test: Treatment effect of infected fry by digestion in breeding water; type: in vivo, Sebastes schlegeli; conditions: 50 fish
Protocol: (§4) To be used as experimental fish in this example, fry of Bastardhalibut and Sebastes schlegeli (mean body weight 2 g), 50 per each breeding tank, were preliminary-bred for 1 week and stabilized. […] The artificial infection methods were carried out by the digestion method. Pathogenic organisms were applied into fish tanks and digested in seawater, wherein the concentration of organisms has adjusted to 10^4 CFU/mL for an hour, and infected. Treatment conditions are as follows. After artificial infection. Infected fishes were moved to fish tanks and kept in the infection period for 3 days. On the fourth day of infection, 0.1, 1.0, 5 and 10 ppm δ-aminolevulinic acid were introduced to use as breeding water. Fish was bred in aerobic condition for 1˜24 hours without exchanging water and then, bred for 2 weeks after exchanging with clean seawater. Then, they were monitored to check for the mortality of fish according to infection. In the control groups, after each bacteria were identically introduced through the digestion method, mortality of Bastardhalibut and Sebastes schlegeli according to bacteria infection was identified while breeding with non-treated condition of δ-aminolevulinic acid. As a result of this experiment, δ-aminolevulinic acid-treated groups have shown high viability in both Bastardhalibut (Table 12˜Table 15) and Sebastes schlegeli (Table 16˜Table 19).

[4] = system: Vibrio anguillarum; test: as above; type: in vivo, Sebastes schlegeli; conditions: 50 fish
Protocol: as §4

[5] = system: Staphylococcus epidermis; test: as above; type: in vivo, Sebastes schlegeli; conditions: 50 fish
Protocol: as §4

[6] = system: Edwardsiella tarda; test: as above; type: in vivo, Sebastes schlegeli; conditions: 50 fish
Protocol: as §4

[7] = system: Vibrio anguillarum; test: Prevention effect for artificial infection (abdominal injection of bacteria); type: in vivo, Bastardhalibut; conditions: for Mortality during Cultivation: dead of 20 fish
Protocol: as §1, §2, §3

[8] = system: White Spot Syndrome Virus (WSSV); test: Prevention for White Spot Syndrome Virus infected shrimp; type: in vivo, Penaeus Chinesis
Protocol: The Shrimps (Penaeus Chinesis, size 6˜8 cm) were immersed in 0.01˜10 ppm of EnviroVax for 1.5 hr during 3 days and injected viral homogenate at 4 day.
The Viral homogenate was prepared as follows:
Homogenize 1 g of tissue (gill and stomach) in 1 ml PBS.
Centrifuge at 2,000 rpm for 10 min. at 4° C.
Filter the supernatant by using the 0.45 μm membrane filter.
Dilute the filtrate (1 part of filtrate to 10 parts of PBS).

[9] = digestion 0.1 ppm from 4th day of infection, Sebastes schlegeli fry
[10] = digestion 1.0 ppm from 4th day of infection, Sebastes schlegeli fry
[11] = digestion 5.0 ppm from 4th day of infection, in Sebastes schlegeli
[12] = digestion 10 ppm from 4th day of infection, Sebastes schlegeli fry

NCC(=O)CCC(=O)O [δ-aminolevulinic acid]
Viability ([1]; orally, 0.1 ppm in feed): 60%
Mortality during Cultivation ([1]; orally, 0.1 ppm in feed): 8
Viability ([1]; orally, 1.0 ppm in feed): 65%
Mortality during Cultivation ([1]; orally, 1.0 ppm in feed): 7
Viability ([1]; orally, 10 ppm in feed): 80%
Mortality during Cultivation ([1]; orally, 10 ppm in feed): 4
Viability ([1]; orally, 100 ppm in feed): 90%
Mortality during Cultivation ([1]; orally, 100 ppm in feed): 2
Viability ([1]; to fish tanks, 0.01 ppm): 60%
Mortality during Cultivation ([1]; to fish tanks, 0.01 ppm): 8
Viability ([1]; to fish tanks, 0.1 ppm): 60%
Mortality during Cultivation ([1]; to fish tanks, 0.1 ppm): 8
Viability ([1]; to fish tanks, 1.0 ppm): 85%
Mortality during Cultivation ([1]; to fish tanks, 1.0 ppm): 1
Viability ([1]; to fish tanks, 10 ppm): 90%
Mortality during Cultivation ([1]; to fish tanks, 10 ppm): 2
Cumulative mortality ([2]; digestion 0.1 ppm day 1, 0.01 ppm days 2 and 3, 2 hrs, maintained for 1 week after treatment): 40%
Cumulative mortality ([2]; digestion-treated groups in progressive disease, end result (non-treated 80%)): about 40%
Viability [3, 9]: 50%
Viability [3, 10]: 76%
Viability [3, 11]: 86%
Viability [3, 12]: 86%
Viability [4, 9]: 50%
Viability [4, 10]: 74%
Viability ([4]; digestion 5.0 ppm from 4th day of infection): 84%
Viability [4, 12]: 86%
Viability [5, 9]: 40%
Viability [5, 10]: 70%
Viability [5, 11]: 66%
Viability ([5]; digestion 10 ppm from 4th day of infection): 84%
Viability [6, 9]: 60%
Viability [6, 10]: 80%
Viability [6, 11]: 84%
Viability [6, 12]: 94%
Viability ([7]; orally, 0.1 ppm in feed): 65%
Mortality during Cultivation ([7]; orally, 0.1 ppm in feed): 7
Viability ([7]; orally, 1.0 ppm in feed): 55%
Mortality during Cultivation ([7]; orally, 1.0 ppm in feed): 9
Viability ([7]; orally, 10 ppm in feed): 85%
Mortality during Cultivation ([7]; orally, 10 ppm in feed): 3
Viability ([7]; orally, 100 ppm in feed): 90%
Mortality during Cultivation ([7]; orally, 100 ppm in feed): 2
Viability ([7]; to fish tanks, 0.01 ppm): 65%
Mortality during Cultivation ([7]; to fish tanks, 0.01 ppm): 7
Viability ([7]; to fish tanks, 0.1 ppm): 65%
Mortality during Cultivation ([7]; to fish tanks, 0.1 ppm): 7
Viability ([7]; to fish tanks, 1.0 ppm): 80%
Mortality during Cultivation ([7]; to fish tanks, 1.0 ppm): 2
Viability ([7]; to fish tanks, 10 ppm): 85%
Mortality during Cultivation ([7]; to fish tanks, 10 ppm): 3
Cumulative mortality ([8]; 0.01 ppm, after injection for 3 weeks): 100%
Mortality after injection for 3 weeks ([8]; 0.01 ppm, day 1, 50 shrimp): 0
Mortality after injection for 3 weeks ([8]; 0.01 ppm, day 2, 50 shrimp): 0
Mortality after injection for 3 weeks ([8]; 0.01 ppm, day 3, 50 shrimp): 15
Mortality after injection for 3 weeks ([8]; 0.01 ppm, day 4, 50 shrimp): 20
Mortality after injection for 3 weeks ([8]; 0.01 ppm, day 5, 50 shrimp): 12
Mortality after injection for 3 weeks ([8]; 0.01 ppm, day 6, 50 shrimp): 3
Cumulative mortality ([8]; 0.1 ppm, after injection for 3 weeks): 12%
Mortality after injection for 3 weeks ([8]; 0.1 ppm, day 1, 50 shrimp): 0
Mortality after injection for 3 weeks ([8]; 0.1 ppm, day 2, 50 shrimp): 0
Mortality after injection for 3 weeks ([8]; 0.1 ppm, day 3, 50 shrimp): 2
Mortality after injection for 3 weeks ([8]; 0.1 ppm, day 4, 50 shrimp): 3
Mortality after injection for 3 weeks ([8]; 0.1 ppm, day 5, 50 shrimp): 1
Mortality after injection for 3 weeks ([8]; 0.1 ppm, day 6, 50 shrimp): 0
Mortality after injection for 3 weeks ([8]; 0.1 ppm, day 7, 50 shrimp): 0
Mortality after injection for 3 weeks ([8]; 0.1 ppm, day 21, 50 shrimp): 0
Cumulative mortality ([8]; 1.0 ppm, after injection for 3 weeks): 8%
Mortality after injection for 3 weeks ([8]; 1.0 ppm, day 1, 50 shrimp): 0
Mortality after injection for 3 weeks ([8]; 1.0 ppm, day 2, 50 shrimp): 1
Mortality after injection for 3 weeks ([8]; 1.0 ppm, day 3, 50 shrimp): 2
Mortality after injection for 3 weeks ([8]; 1.0 ppm, day 4, 50 shrimp): 1
Mortality after injection for 3 weeks ([8]; 1.0 ppm, day 5, 50 shrimp): 0
Mortality after injection for 3 weeks ([8]; 1.0 ppm, day 6, 50 shrimp): 0
Mortality after injection for 3 weeks ([8]; 1.0 ppm, day 7, 50 shrimp): 0
Mortality after injection for 3 weeks ([8]; 1.0 ppm, day 21, 50 shrimp): 0
Cumulative mortality ([8]; 10 ppm, after injection for 3 weeks): 6%
Mortality after injection for 3 weeks ([8]; 10 ppm, day 1, 50 shrimp): 0
Mortality after injection for 3 weeks ([8]; 10 ppm, day 2, 50 shrimp): 0
Mortality after injection for 3 weeks ([8]; 10 ppm, day 3, 50 shrimp): 3
Mortality after injection for 3 weeks ([8]; 10 ppm, day 4, 50 shrimp): 0
Mortality after injection for 3 weeks ([8]; 10 ppm, day 5, 50 shrimp): 0
Mortality after injection for 3 weeks ([8]; 10 ppm, day 6, 50 shrimp): 0
Mortality after injection for 3 weeks ([8]; 10 ppm, day 7, 50 shrimp): 0
Mortality after injection for 3 weeks ([8]; 10 ppm, day 21, 50 shrimp): 0
Cumulative mortality ([8]; immersion 1.0 ppm, 1.5 hr during 3 days before virus injection, 3 weeks): 8%
Cumulative mortality ([8]; immersion 10 ppm, 1.5 hr during 3 days before virus injection, 3 weeks): 6%
